Measurements as given in patent US9247740B2, “Isoxazoline derivatives as insecticidal compounds” (Syngenta Participations AG, priority 2011, dated 2016).

Columns and labels:
Type in all cases: in vivo
[1] = system: Spodoptera littoralis (Egyptian Cotton Leafworm); assay: Spodoptera littoralis leaf disc spray test; conditions: foliar, 72 h, 200 ppm spray on cotton leaf discs, mortality, feeding behavior, growth regulation 3 days after treatment
Experimental: This Example illustrates the insecticidal and acaricidal properties of compounds of formula (I). Tests were performed as follows:

[2] = system: Heliothis virescens (Tobacco Budworm); assay: Heliothis virescens egg test on artificial diet; conditions: 96 h, 200 ppm (concentration in well 18 ppm), eggs 0-24 h old on artificial diet, egg mortality, larval mortality, growth regulation after 4 days
From the text: (§1) This Example illustrates the insecticidal and acaricidal properties of compounds of formula (I).

[3] = system: Plutella xylostella (Diamond Back Moth); assay: Plutella xylostella larval test on artificial diet; conditions: 144 h, 200 ppm (concentration in well 18 ppm), L2 larvae, larval mortality and growth regulation after 6 days
From the text: as §1

[4] = system: Diabrotica balteata (Corn Root Worm); assay: Diabrotica balteata larval test on artificial diet; conditions: 120 h, 200 ppm (concentration in well 18 ppm), L2 larvae, larval mortality and growth regulation after 5 days
From the text: as §1

[5] = system: Thrips tabaci (Onion Thrips); assay: Thrips tabaci leaf disc spray test; conditions: foliar, 168 h, 200 ppm spray on sunflower leaf discs, mixed ages, mortality after 7 days
From the text: as §1

[6] = system: Tetranychus urticae (Two-Spotted Spider Mite); assay: Tetranychus urticae leaf disc spray test; conditions: foliar, 192 h, 200 ppm spray on bean leaf discs, mixed ages, egg, larval and adult mortality 8 days later
From the text: as §1

Measured: pest or weed control at 200 ppm

O=C(NC1CSC1)c1ccc(C2=NOC(c3cc(Cl)cc(Cl)c3)(C(F)(F)F)C2)c([N+](=O)[O-])c1 (stereo not shown) [Compound B55, 4-[5-(3,5-dichlorophenyl)-5-trifluoromethyl-4H-isoxazol-3-yl]-3-nitro-N-(thietan-3-yl)benzamide]
≥ 80%: [1] | [2] | [3] | [4]

Cc1cc(C2=NOC(c3cc(Cl)cc(Cl)c3)(C(F)(F)F)C2)ccc1C(=O)NCC1CSC1 (stereo not shown) [Compound A130, 4-[5-(3,5-dichlorophenyl)-5-(trifluoromethyl)-4H-isoxazol-3-yl]-2-methyl-N-(thietan-3-ylmethyl)benzamide]
≥ 80%: all assays above

Cc1cc(C2=NOC(c3cc(Cl)cc(Cl)c3)(C(F)(F)F)C2)ccc1C(=O)N1CC2(CSC2)C1 (stereo not shown) [Compound C013, [4-[5-(3,5-dichlorophenyl)-5-(trifluoromethyl)-4H-isoxazol-3-yl]-2-methyl-phenyl]-(6-thia-2-azaspiro[3.3]heptan-2-yl)methanone]
≥ 80%: [3] | [4] | [5] | [6]

Cc1cc(C2=NOC(c3c[nH]c(C(F)(F)F)c3)(C(F)(F)F)C2)ccc1C(=O)NC1CS(=O)(=O)C1 (stereo not shown) [Compound C008, N-(1,1-dioxothietan-3-yl)-2-methyl-4-[5-(trifluoromethyl)-5-[5-(trifluoromethyl)-1H-pyrrol-3-yl]-4H-isoxazol-3-yl]benzamide]
≥ 80%: [2] | [5] | [6]

Cc1cc(C2=[N+]([O-])OC(c3cc(Cl)cc(Cl)c3)(C(F)(F)F)C2)ccc1C(=O)NC1CS(=O)(=O)C1 (stereo not shown) [Compound C012, 4-[5-(3,5-dichlorophenyl)-2-oxido-5-(trifluoromethyl)-4H-isoxazol-2-ium-3-yl]-N-(1,1-dioxothietan-3-yl)-2-methyl-benzamide]
not listed: [5]
≥ 80%: all other assays above

CCc1cc(C2=NOC(c3cc(Cl)cc(Cl)c3)(C(F)(F)F)C2)ccc1C(=O)NC1CSC1 (stereo not shown) [Compound B69, 4-[5-(3,5-dichlorophenyl)-5-trifluoromethyl-4H-isoxazol-3-yl]-2-ethyl-N-(thietan-3-yl)benzamide]
≥ 80%: all assays above

Cc1cc(C2=NO[C@@](c3cc(Cl)cc(Cl)c3)(C(F)(F)F)C2)ccc1C(=O)NCC1CS(=O)(=O)C1 [Compound C20, 4-[(5S)-5-(3,5-dichlorophenyl)-5-(trifluoromethyl)-4H-isoxazol-3-yl]-N-[(1,1-dioxothietan-3-yl)methyl]-2-methyl-benzamide]
≥ 80%: all assays above

Cc1cc(C2=NOC(c3cn(CC(F)F)cc3C(C)(C)C)(C(F)(F)F)C2)ccc1C(=O)NC1CSC1 (stereo not shown) [Compound C005, 4-[5-[4-tert-butyl-1-(2,2-difluoroethyl)pyrrol-3-yl]-5-(trifluoromethyl)-4H-isoxazol-3-yl]-2-methyl-N-(thietan-3-yl)benzamide]
not listed: [5]
≥ 80%: all other assays above

O=C(NC1CSC1)c1ccc(C2=NOC(c3cc(Cl)cc(Cl)c3)(C(F)(F)F)C2)cc1[N+](=O)[O-] (stereo not shown) [Compound B56, 4-[5-(3,5-dichlorophenyl)-5-trifluoromethyl-4H-isoxazol-3-yl]-2-nitro-N-(thietan-3-yl)benzamide]
≥ 80%: all assays above

Cc1cc(C2=NOC(c3cc(C(F)(F)F)n(C)c3)(C(F)(F)F)C2)ccc1C(=O)NC1CSC1 (stereo not shown) [Compound C006, 2-methyl-4-[5-[1-methyl-5-(trifluoromethyl)pyrrol-3-yl]-5-(trifluoromethyl)-4H-isoxazol-3-yl]-N-(thietan-3-yl)benzamide]
not listed: [2]
≥ 80%: all other assays above

Cc1cc(C2=NOC(c3cc(C(C)(C)C)c[nH]3)(C(F)(F)F)C2)ccc1C(=O)NC1CSC1 (stereo not shown) [Compound C003, 4-[5-(4-tert-butyl-1H-pyrrol-2-yl)-5-(trifluoromethyl)-4H-isoxazol-3-yl]-2-methyl-N-(thietan-3-yl)benzamide]
≥ 80%: [2]

Cc1cc(C2=NOC(c3c[nH]c(C(F)(F)F)c3)(C(F)(F)F)C2)ccc1C(=O)NC1CSC1 (stereo not shown) [Compound C010, 2-methyl-N-(thietan-3-yl)-4-[5-(trifluoromethyl)-5-[5-(trifluoromethyl)-1H-pyrrol-3-yl]-4H-isoxazol-3-yl]benzamide]
≥ 80%: [5] | [6]

Cc1cc(C2=NOC(c3cc(Cl)cc(Cl)c3)(C(F)(F)F)C2)ccc1C(=O)NCC1CS(=O)(=O)C1 (stereo not shown) [Compound A132, 4-[5-(3,5-dichlorophenyl)-5-(trifluoromethyl)-4H-isoxazol-3-yl]-2-methyl-N-(1.1-dioxo-thietan-3-ylmethyl)benzamide]
≥ 80%: all assays above

Cc1cc(C2=[N+]([O-])OC(c3cc(Cl)cc(Cl)c3)(C(F)(F)F)C2)ccc1C(=O)NC1CSC1 (stereo not shown) [Compound C011, 4-[5-(3,5-dichlorophenyl)-2-oxido-5-(trifluoromethyl)-4H-isoxazol-2-ium-3-yl]-2-methyl-N-(thietan-3-yl)benzamide]
≥ 80%: [1] | [2] | [4]

Nc1cc(C2=NOC(c3cc(Cl)cc(Cl)c3)(C(F)(F)F)C2)ccc1C(=O)NC1CSC1 (stereo not shown) [Compound B57, 4-[5-(3,5-dichlorophenyl)-5-trifluoromethyl-4H-isoxazol-3-yl]-2-amino-N-(thietan-3-yl)benzamide]
not listed: [5]
≥ 80%: all other assays above

Cc1cc(C2=NOC(c3cc(C(F)(F)F)n(CC(F)F)c3)(C(F)(F)F)C2)ccc1C(=O)NC1CSC1 (stereo not shown) [Compound C007, 4-[5-[1-(2,2-difluoroethyl)-5-(trifluoromethyl)pyrrol-3-yl]-5-(trifluoromethyl)-4H-isoxazol-3-yl]-2-methyl-N-(thietan-3-yl)benzamide]
≥ 80%: all assays above

Cc1cc(C2=NO[C@@](c3cc(Cl)c(F)c(Cl)c3)(C(F)(F)F)C2)ccc1C(=O)NC1CS(=O)(=O)C1 [Compound C18, 4-[(5S)-5-(3,5-dichloro-4-fluoro-phenyl)-5-(trifluoromethyl)-4H-isoxazol-3-yl]-N-(1,1-dioxothietan-3-yl)-2-methyl-benzamide]
≥ 80%: all assays above

Cc1cc(C2=NO[C@@](c3cc(Cl)c(Cl)c(Cl)c3)(C(F)(F)F)C2)ccc1C(=O)N[C@H]1C[S@@+]([O-])C1 [Compound C17, 2-methyl-N-(1-oxothietan-3-yl)-4-[(5S)-5-(3,4,5-trichlorophenyl)-5-(trifluoromethyl)-4H-isoxazol-3-yl]benzamide]
≥ 80%: all assays above

Cc1cc(C2=NO[C@@](c3cc(Cl)cc(Cl)c3)(C(F)(F)F)C2)cnc1C(=O)N[C@H]1C[S@@+]([O-])C1 [Compound C16, 5-[(5S)-5-(3,5-dichlorophenyl)-5-(trifluoromethyl)-4H-isoxazol-3-yl]-3-methyl-N-(1-oxidothietan-1-ium-3-yl)pyridine-2-carboxamide]
≥ 80%: all assays above

Cc1cc(C2=NOC(c3c[nH]c(C(F)(F)F)c3)(C(F)(F)F)C2)ccc1C(=O)NC1C[S+]([O-])C1 (stereo not shown) [Compound C009, 2-methyl-N-(1-oxothietan-3-yl)-4-[5-(trifluoromethyl)-5-[5-(trifluoromethyl)-1H-pyrrol-3-yl]-4H-isoxazol-3-yl]benzamide]
≥ 80%: [3] | [5] | [6]
